Data published in ChEMBL document CHEMBL1134048, “Novel antitumor artemisinin derivatives targeting G1 phase of the cell cycle” (Bioorg Med Chem Lett, 2001).

Columns and labels:
[1] = test system: P388; test: Percent of cells in sub-G1 phase (apoptotic cells) of cell cycle was determined after 21 hrs of incubation of P388 cells; type: functional, Mus musculus
[2] = test system: A549; test: In vitro inhibitory concentration required against human lung A549 carcinoma cells proliferation; type: functional, cell-based
[3] = test system: P388; test: In vitro inhibitory concentration required against murine P388 leukemic cells proliferation; type: functional, cell-based; conditions: Mus musculus
[4] = test system: P388; test: Ability to induce apoptosis after 21 hrs of incubation of P388 cells; type: functional, cell-based; conditions: Mus musculus
[5] = test system: P388; test: Percent of cells in G1 phase of cell cycle, was determined after 21 hrs of incubation of P388 cells; type: functional, Mus musculus
[6] = test system: P388; test: Percent of cells in G1 phase of cell cycle was determined after 21 hrs of incubation of P388 cells; type: functional, Mus musculus
[7] = test system: NIH3T3; test: In vitro inhibitory concentration required against NIH3T3 cells proliferation; type: functional, cell-based; conditions: Mus musculus

Row | SMILES | Apoptosis [1] [%] | IC50 [2] [µM] | IC50 [3] [µM] | Concentration [4] [nM] | G1 [5] [%] | G1 [6] [%] | IC50 [7] [µM]
1 | C[C@@H]1CCC2[C@@H](C)[C@@H](O[C@@H](C#N)c3ccccc3)O[C@@H]3O[C@]4(C)CCC1[C@@]23OO4 (stereo partly specified) | 53 | 1.23 | 0.238 | 500 | 67 | – | –
2 | C[C@@H]1CCC2[C@@H](C)[C@@H](O[C@H](C#N)c3ccccc3)O[C@@H]3O[C@]4(C)CCC1[C@@]23OO4 (stereo partly specified) | 45 | 0.662 | 0.048 | 100 | – | 61 | –
3 | C[C@@H]1CCC2[C@@H](C)[C@@H](O[C@@H](C#N)c3ccc(Br)cc3)O[C@@H]3O[C@]4(C)CCC1[C@@]23OO4 (stereo partly specified) | 49 | 0.047 | 0.012 | 25 | 62 | – | 3050
4 | C[C@@H]1CCC2[C@@H](C)[C@@H](OC(C#N)c3ccc(Br)cc3)O[C@@H]3O[C@]4(C)CCC1[C@@]23O4 (stereo partly specified) | – | 42 | 24.2 | – | – | – | –
5 | CC[C@]1(O)C[C@H]2CN(CCc3c([nH]c4ccccc34)[C@@](C(=O)OC)(c3cc4c(cc3OC)N(C=O)[C@H]3[C@@](O)(C(=O)OC)[C@H](OC(C)=O)[C@]5(CC)C=CCN6CC[C@]43[C@@H]65)C2)C1 [VINCRISTINE] | – | 0.018 | 0.002 | – | – | – | –
6 | C[C@@H]1CCC2[C@@H](C)[C@@H](OCC#N)O[C@@H]3O[C@]4(C)CCC1[C@@]23OO4 (stereo partly specified) | 7 | 79.4 | 1.85 | 10000 | 65 | – | –
7 | C[C@@H]1CCC2[C@@H](C)[C@@H](O[C@H](C#N)c3ccc(Br)cc3)O[C@@H]3O[C@]4(C)CCC1[C@@]23OO4 (stereo partly specified) | 51 | 0.039 | 0.011 | 25 | 63 | – | 5120
